Data on 23 compounds can be found in patent publication US9115148B2, “Spirocyclic derivatives as histone deacetylase inhibitors” (DAC S.R.L., priority 2008, dated 2015).

For one assay, the system named is A549 cells. The assay is described as follows: Cell growth, CellTiter-Glo Luminescent Cell Viability Assay, A549. The assay is classed as cell-based. The conditions noted are these: Homo sapiens, 72 h incubation, read-out: IC50 antiproliferative assay A549. An excerpt:
(§1) CellTiter-Glo® Luminescent Cell Viability Assay (Promega) is a homogeneous method of determining the number of viable cells in culture based on quantitation of the present ATP, which indicates the presence of metabolically active cells. The homogeneous assay procedure involves addition of a single reagent (CellTiter-Glo® Reagent) directly to the cells, which leads to cell lysis and generation of a luminescent signal proportional to the amount of the ATP and the number of cells present in culture. The assay relies on the properties of a proprietary thermostable luciferase (Ultra-Glo® recombinant luciferase), which generates a luminescent signal.
(§2) K562, A549 and HCT-116 cells, in exponential growth, were incubated for 72 h with different concentrations of the inhibitors. After 72 h, a volume of CellTiter-Glo® Reagent equal to the volume of cell culture medium was added. The content was mixed for 2 min to induce cell lysis. The luminescence was recorded after further 10 min at RT in order to obtain a stabilized luminescent signal.
(§3) The IC50 was calculated using GraphPad Software.
(§4) IC50 results were allocated to one of 3 ranges as follows: Range A: IC50≦1.0 μM; Range B: from 1.0 to 3.0 μM; Range C: IC50≧3.0 μM.
A general note: In ATP-based viability assays light output follows the ATP content of the culture.

Another assay concerns K562 cells. Put plainly: Cell growth, CellTiter-Glo Luminescent Cell Viability Assay, K562. The assay is classed as cell-based. The conditions noted are these: Homo sapiens, 72 h incubation, read-out: IC50 antiproliferative assay K562.
Text: as §1, §2, §3, §4

For another assay, the system named is HCT-116 cells. Put plainly: Cell growth, CellTiter-Glo Luminescent Cell Viability Assay, HCT-116. Format: cell-based. The conditions noted are these: Homo sapiens, HCT116 cells, 72 h incubation, read-out: IC50 antiproliferative assay HCT116.
Text: as §1, §2, §3, §4

In assay [1] the test system is HDAC (nuclear fraction of Hela cells). Put plainly: Assay of enzyme inhibition of HDAC (BIOMOL Kit). The assay is classed as biochemical. The conditions noted are these: substrate 200 μM, 15 min at RT. The method, then: 2.2 Assay of Enzyme Inhibition of HDAC
The in-vitro activity of HDAC inhibitors was assayed using a BIOMOL Kit, according to the instructions from the manufacturer (Biomolecular Research Laborator). 15 μl of 30× diluted nuclear fraction of Hela cells, was diluted to 50 μl with the assay buffer containing the HDAC inhibitor and the substrate (lysine with acetylated amino group on the side chain) at a concentration of 200 μM. The samples were incubated for 15 min at RT and then exposed to a developer (10 min at RT). In this last step a fluorophore was produced, whose fluorescence was measured using an excitation wavelength of 355 nm and an emission at 460 nm. The IC50 was calculated using GraphPad Software.

In general, IC50 refers to the point on the concentration scale where inhibition reaches its midpoint. Take `O=C(/C=C/c1ccc2c(c1)C(O)CC1(CCN(Cc3ccccc3)CC1)O2)NO` (centres unmarked) [Example 14, (E)-3-{1′-Benzyl-4-hydroxy-spiro[chromane-2,4′-piperidine]-6-yl}-N-hydroxy-acrylamide]: the IC50 with A549 cells is not below 3000 nM; in the assay with K562 cells it was 1000 to 3000 nM; in the assay with HCT-116 cells, 1000 to 3000 nM; in assay [1], more than 1000 nM.

As to `O=C(/C=C/c1ccc2c(c1)OC1(CCNCC1)CC2=O)NO` [Example 8, (E)-3-{4-oxo-spiro[chromane-2,4′-piperidine]-7-yl}-N-hydroxy-acrylamide], the half-maximal inhibitory concentration (IC50) with A549 cells was not below 3000 nM; in the assay on K562 cells it was not below 3000 nM; in the assay on HCT-116 cells, not below 3000 nM; in assay [1] it was more than 1000 nM.

`O=C(/C=C/c1ccc2c(c1)/C(=N/O)CC1(CCN(Cc3ccccc3)CC1)O2)NO` [Example 19, (E)-3-{1′-Benzyl-4-hydroxyimino-spiro[chromane-2,4′-piperidine]-6-yl}-N-hydroxy-acrylamide]: the IC50 is 1000 to 3000 nM with A549 cells, 1000 to 3000 nM in the assay with K562 cells, not above 1000 nM in the assay with HCT-116 cells and less than 100 nM in assay [1].

Consider `Cc1cccc(CN2CCC3(CC2)CC(=O)c2cc(/C=C/C(=O)NO)ccc2O3)c1` [Example 29, (E)-3-{1′-(3-Methyl-benzyl)-4-oxo-spiro[chromane-2,4′-piperidine]-6-yl}-N-hydroxy-acrylamide], for which the half-inhibitory concentration (IC50) in the assay on A549 cells is 1000 to 3000 nM; in the assay with K562 cells, not above 1000 nM; with HCT-116 cells, not above 1000 nM; in assay [1] it was 100 to 1000 nM.

`O=C(/C=C/c1ccc2c(c1)C(=O)CC1(CCN(Cc3cccc(F)c3)CC1)O2)NO` [Example 35, (E)-3-{1′-(3-Fluoro-benzyl)-4-oxo-spiro[chromane-2,4′-piperidine]-6-yl}-N-hydroxy-acrylamide]: the IC50 with A549 cells was 1000 to 3000 nM; in the assay with K562 cells, not above 1000 nM; with HCT-116 cells, 1000 to 3000 nM; in assay [1] it was 100 to 1000 nM.

Turning to `Cn1c(CN2CCC3(CC2)CC(=O)c2cc(/C=C/C(=O)NO)ccc2O3)cc2ccccc21` [Example 64, (E)-3-{1′-(1-Methyl-1H-indol-2-ylmethyl)-4-oxo-spiro[chromane-2,4′-piperidine]-6-yl}-N-hydroxy-acrylamide], the IC50 was in the range of 1000 to 3000 nM in the assay with A549 cells, 1000 to 3000 nM in the assay with K562 cells, 1000 to 3000 nM in the assay on HCT-116 cells and 100 to 1000 nM in assay [1].

For the compound `O=C(/C=C/c1ccc2c(c1)C(=O)CC1(CCN(CCc3ccc(Cl)cc3)CC1)O2)NO` [Example 57, (E)-3-{1′-[2-(4-Chloro-phenyl)-ethyl]-4-oxo-spiro[chromane-2,4′-piperidine]-6-yl}-N-hydroxy-acrylamide], the IC50 in the assay on A549 cells is not above 1000 nM; in the assay with K562 cells, not above 1000 nM; in the assay with HCT-116 cells, not above 1000 nM; in assay [1], 100 to 1000 nM.

Take `O=C(/C=C/c1ccc2c(c1)C(=O)CC1(CCN(S(=O)(=O)c3ccccc3)CC1)O2)NO` [Example 44, (E)-3-{1′-Phenylsulfonyl-4-oxo-spiro[chromane-2,4′-piperidine]-6-yl}-N-hydroxy-acrylamide]: the IC50 in the assay with A549 cells was not below 3000 nM; in the assay on K562 cells, 1000 to 3000 nM; in the assay on HCT-116 cells it was 1000 to 3000 nM; in assay [1], 100 to 1000 nM.

For `CON=C1CC2(CCN(Cc3ccccc3)CC2)Oc2ccc(/C=C/C(=O)NO)cc21` (racemic) [Example 18, (E)-3-{1′-Benzyl-4-methyloxyimino-spiro[chromane-2,4′-piperidine]-6-yl}-N-hydroxy-acrylamide], the IC50 in the assay on A549 cells was 1000 to 3000 nM; with K562 cells, 1000 to 3000 nM; in the assay on HCT-116 cells, not above 1000 nM; in assay [1], 100 to 1000 nM.

Consider `O=C(/C=C/c1ccc2c(c1)C(=O)CC1(CCN(Cc3c[nH]c4ccc(F)cc34)CC1)O2)NO` [Example 54, (E)-3-{1′-(5-Fluoro-1H-indol-3-ylmethyl)-4-oxo-spiro[chromane-2,4′-piperidine]-6-yl}-N-hydroxy-acrylamide], for which the half-maximal inhibitory concentration (IC50) in the assay with A549 cells is not above 1000 nM; in the assay with K562 cells, not above 1000 nM; with HCT-116 cells, not above 1000 nM; in assay [1] it was less than 100 nM.

On to `O=C(/C=C/c1ccc2c(c1)C(=O)CC1(CCN(Cc3ccc(F)cc3)CC1)O2)NO` [Example 36, (E)-3-{1′-(4-Fluoro-benzyl)-4-oxo-spiro[chromane-2,4′-piperidine]-6-yl}-N-hydroxy-acrylamide], for which the IC50 with A549 cells is 1000 to 3000 nM; in the assay with K562 cells, not above 1000 nM; in the assay with HCT-116 cells it was not above 1000 nM; in assay [1] it was 100 to 1000 nM.

For the compound `O=C(/C=C/c1ccc2c(c1)C(=O)NC1(CCNCC1)O2)NO` [Example 72, (E)-3-{3,4-Dihydro-4-oxo-spiro[2H-(1,3)-benzoxazine-2,4′-piperidin]-6-yl}-N-hydroxy-acrylamide], the IC50 with A549 cells is not below 3000 nM; with K562 cells it was not below 3000 nM; with HCT-116 cells, not below 3000 nM; in assay [1] it was less than 100 nM.

As to `O=C(/C=C/c1ccc2c(c1)C=CC1(CCN(Cc3ccccc3)CC1)O2)NO` [Example 15, (E)-3-{1′-Benzyl-spiro[chromene-2,4′-piperidine]-6-yl}-N-hydroxy-acrylamide], the IC50 was not below 3000 nM in the assay with A549 cells, not below 3000 nM in the assay on K562 cells, not below 3000 nM with HCT-116 cells and more than 1000 nM in assay [1].

In assay [1], `O=C(/C=C/c1ccc2c(c1)C(=O)CC1(CCN(Cc3ccc4ccccc4n3)CC1)O2)NO` [Example 65, (E)-3-{1′-(Quinolin-2-ylmethyl)-4-oxo-spiro[chromane-2,4′-piperidine]-6-yl}-N-hydroxy-acrylamide] yielded an IC50 of less than 100 nM.

As to `O=C(/C=C/c1ccc2c(c1)C(=O)NC1(CCN(Cc3ccccc3)CC1)N2)NO` [Example 26, (E)-3-{1-Benzyl-3′,4′-dihydro-4′-oxo-spiro[piperidine-4,2′(1′H)-quinazoline]-6′-yl}-N-hydroxy-acrylamide], the half-maximal inhibitory concentration (IC50) with A549 cells is not below 3000 nM; in the assay with K562 cells it was not below 3000 nM; with HCT-116 cells it was not below 3000 nM; in assay [1], 100 to 1000 nM.

As to `O=C(/C=C/c1ccc2c(c1)C(=O)CC1(CCN(Cc3c[nH]c4cc(F)ccc34)CC1)O2)NO` [Example 53, (E)-3-{1′-(6-Fluoro-1H-indol-3-ylmethyl)-4-oxo-spiro[chromane-2,4′-piperidine]-6-yl}-N-hydroxy-acrylamide], the half-maximal inhibitory concentration (IC50) in the assay with A549 cells was 1000 to 3000 nM; in the assay on K562 cells, not above 1000 nM; in the assay on HCT-116 cells it was not above 1000 nM; in assay [1], less than 100 nM.

For `CCOC(=O)N1CCC2(CC1)CC(=O)c1ccc(/C=C/C(=O)NO)cc1O2` [Example 12, (E)-3-{1′-Ethyloxycarbonyl-4-oxo-spiro[chromane-2,4′-piperidine]-7-yl}-N-hydroxy-acrylamide], the half-maximal inhibitory concentration (IC50) in the assay with A549 cells is 1000 to 3000 nM; in the assay on K562 cells it was 1000 to 3000 nM; with HCT-116 cells it was not below 3000 nM; in assay [1], 100 to 1000 nM.

`CCOC(=O)N1CCC2(CC1)CC(=O)c1cc(/C=C/C(=O)NO)ccc1O2` [Example 6, (E)-3-{1′-Ethyloxycarbonyl-4-oxo-spiro[chromane-2,4′-piperidine]-6-yl}-N-hydroxy-acrylamide]: the IC50 was not below 3000 nM in the assay on A549 cells, 1000 to 3000 nM in the assay on K562 cells, 1000 to 3000 nM in the assay on HCT-116 cells and 100 to 1000 nM in assay [1].

As for `O=C(/C=C/c1ccc2c(c1)C(=O)CC1(CCN(C3CCCC3)CC1)O2)NO` [Example 70, (E)-3-{1′-Cyclopentyl-4-oxo-spiro[chromane-2,4′-piperidine]-6-yl}-N-hydroxy-acrylamide], the concentration for half-maximal inhibition (IC50) in assay [1] was 100 to 1000 nM.

Compound `O=C(/C=C/c1ccc2c(c1)C(=O)CC1(CCN(Cc3ccccc3-c3ccccc3)CC1)O2)NO` [Example 67, (E)-3-{1′-(Biphenyl-2yl-methyl)-4-oxo-spiro[chromane-2,4′-piperidine]-6-yl}-N-hydroxy-acrylamide] registered an IC50 in assay [1] of 100 to 1000 nM.

In assay [1], `O=C(/C=C/c1ccc2c(c1)C(=O)N(Cc1ccccc1)C1(CCNCC1)O2)NO` [Example 82, (E)-3-{3,4-Dihydro-3-benzyl-4-oxo-spiro[2H-(1,3)-benzoxazine-2,4′-piperidin]-6-yl}-N-hydroxy-acrylamide] yielded an IC50 of less than 100 nM.

Turning to `Cc1ccc(CCN2CCC3(CC2)CC(=O)c2cc(/C=C/C(=O)NO)ccc2O3)cc1` [Example 61, (E)-3-{1′-[2-(4-Methyl-phenyl)-ethyl]-4-oxo-spiro[chromane-2,4′-piperidine]-6-yl}-N-hydroxy-acrylamide], in assay [1], the IC50 was less than 100 nM.

Take `O=C(/C=C/c1ccc2c(c1)C(=O)CC1(CCN(Cc3cnc4ccccc4c3)CC1)O2)NO` [Example 66, (E)-3-{1′-(Quinolin-3-ylmethyl)-4-oxo-spiro[chromane-2,4′-piperidine]-6-yl}-N-hydroxy-acrylamide]: the IC50 in assay [1] fell in the range of 100 to 1000 nM.
